Consider two compounds from patent US9581729B2, “Compound, photosensitive resin composition comprising the same and color filter” (Samsung SDI Co., Ltd., priority 2015, dated 2017).

This series in a line: Solubility in dilution solvent (PGMEA). The settings on record: 25° C., 100 rpm, 1 hour. It counts as physicochemical. Here is the method:
A dilution solvent (PGMEA) is respectively added to 0.5 g of each compound according to Synthesis Examples 6 to 13 and Comparative Synthesis Examples 1 and 2, and each solution is agitated with a mixrotor (Mixrotor VMR-5, Iuchi Seieido Co., Ltd.) at 25° C. and 100 rpm for 1 hour, and solubility result of each compound is provided in Table 1. Solubility Evaluation Reference Dissolution of a compound (a solute) in an amount of greater than or equal to 10 wt % based on the total weight of the dilution solvent: ∘ Dissolution of a compound (a solute) in an amount ranging from greater than or equal 5 wt % and less than 10 wt % based on the total weight of the dilution solvent: Δ Dissolution of a compound (a solute) in an amount ranging from less than 5 wt % based on the total weight of the dilution solvent: X

In the case of `CCCCCOc1c(Cl)c(Cl)c2c(c1Cl)C1=NC/2=N\c2c3c(Cl)c(Cl)c(OCCCCC)c(Cl)c3c3[n]2[Zn][n]2/c(c4c(Cl)c(Cl)c(OCCCCC)c(Cl)c4/c2=N/1)=N\C1=NC(=N\3)/c2c(Cl)c(Cl)c(OCCCCC)c(Cl)c21` [Comparative Synthesis Example 2], the Solubility result is “Δ (Dissolution of a compound (a solute) in an amount ranging from greater than or equal 5 wt % and less than 10 wt % based on the total weight of the dilution solvent)”. With `Clc1c(Cl)c2c(c(Cl)c1Oc1ccccc1)/C1=N/c3c4c(Cl)c(Cl)c(Oc5ccccc5)c(Cl)c4c4[n]3[Zn][n]3/c(c5c(Cl)c(Cl)c(Oc6ccccc6)c(Cl)c5/c3=N/C2=N1)=N\C1=NC(=N\4)/c2c(Cl)c(Oc3ccccc3)c(Cl)c(Cl)c21` [Comparative Synthesis Example 1], the Solubility entry is “Δ (Dissolution of a compound (a solute) in an amount ranging from greater than or equal 5 wt % and less than 10 wt % based on the total weight of the dilution solvent)”.
